Test results reported in PubChem BioAssay AID330 (DTP/NCI, 2004).
Where “and” joins values, the source holds several entries; their conditions need not be identical. Identical values can stand only once. Toxic doses and inconclusive results are not listed. How the source made its calls: active means survival T/C of 150% or more; inactive means T/C below 125% in these data.

System: P388 leukemia ip, CD2F1 mice, survival T/C
Test: NCI In Vivo Anticancer Drug Screen. Data for tumor model P388 Leukemia (intraperitoneal) in CD2F1 (CDF1) mice
Conditions: endpoint: median survival time, higher = longer survival
How it was run: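 Mice carrying the transplanted tumor received test compound or vehicle. Survival was recorded in each group, and the value is the treated-group measurement divided by that of the vehicle-treated control group.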

[1] = dose: 100.0 mg/kg/injection, schedule: Q01DX001 (ip), vehicle: saline
[2] = dose: 60.0 mg/kg/injection, schedule: Q01DX005 (ip), vehicle: saline with Tween-80
[3] = dose: 120.0 mg/kg/injection, schedule: Q01DX005 (ip), vehicle: saline with Tween-80
[4] = dose: 50.0 mg/kg/injection, schedule: Q01DX009 (ip), vehicle: Klucel (hydroxypropylcellulose) (HPC)
[5] = dose: 100.0 mg/kg/injection, schedule: Q01DX009 (ip), vehicle: Klucel (hydroxypropylcellulose) (HPC)
[6] = dose: 200.0 mg/kg/injection, schedule: Q01DX009 (ip), vehicle: Klucel (hydroxypropylcellulose) (HPC)
[7] = dose: 60.0 mg/kg/injection, schedule: Q01DX005 (ip), vehicle: saline
[8] = dose: 120.0 mg/kg/injection, schedule: Q01DX005 (ip), vehicle: saline
[9] = dose: 240.0 mg/kg/injection, schedule: Q01DX005 (ip), vehicle: saline
[10] = dose: 240.0 mg/kg/injection, schedule: Q01DX005 (ip), vehicle: saline with Tween-80
[11] = dose: 60.0 mg/kg/injection, schedule: Q01DX005 (ip), vehicle: Klucel (hydroxypropylcellulose) (HPC)
[12] = dose: 120.0 mg/kg/injection, schedule: Q01DX005 (ip), vehicle: Klucel (hydroxypropylcellulose) (HPC)
[13] = dose: 100.0 mg/kg/injection, schedule: Q04DX002 (ip), vehicle: Klucel (hydroxypropylcellulose) (HPC)
[14] = dose: 200.0 mg/kg/injection, schedule: Q04DX002 (ip), vehicle: Klucel (hydroxypropylcellulose) (HPC)
[15] = dose: 400.0 mg/kg/injection, schedule: Q04DX002 (ip), vehicle: Klucel (hydroxypropylcellulose) (HPC)

Measured: T/C

CSC1=NNC(C)(C)C(N)=N1
inactive: [1] 98 % of control | dose: 200.0 mg/kg/injection, schedule: Q01DX001 (ip), vehicle: saline 97 % of control | dose: 400.0 mg/kg/injection, schedule: Q01DX001 (ip), vehicle: saline 100 % of control

CN(C)CCSc1n[nH]c(=O)[nH]c1=O
inactive: dose: 25.0 mg/kg/injection, schedule: Q01DX005 (ip), vehicle: distilled water + alcohol 101 % of control | dose: 50.0 mg/kg/injection, schedule: Q01DX005 (ip), vehicle: distilled water + alcohol 95 % of control | dose: 100.0 mg/kg/injection, schedule: Q01DX005 (ip), vehicle: distilled water + alcohol 100 % of control | dose: 200.0 mg/kg/injection, schedule: Q01DX005 (ip), vehicle: distilled water + alcohol 96 % of control

COC12CCCC3(OCCO3)C1C(Cl)C2Cl (centres undefined)
inactive: [2] 98 % of control | [3] 88 % of control

O=C(c1ccccc1)C12CCC(CC1)CC2
inactive: [4] 94 % of control | [5] 94 % of control | [6] 109 % of control

O=C(CCC(=O)Nc1cc(Cl)ccc1Cl)CC(=O)c1ccc(Cl)cc1
inactive: [7] 109 % of control | [8] 106 % of control | [9] 109 % of control

N#Cc1ccc(OC(=O)Nc2ccccc2Cl)cc1
inactive: [2] 94 % of control | [3] 95 % of control | [10] 86 % of control

CCOC(=O)N1CCc2cc(OC)c(OC)cc2C1(O)Cc1cc(OC)c(OC)cc1Br (centres undefined)
inactive: dose: 25.0 mg/kg/injection, schedule: Q01DX009 (ip), vehicle: other 109 % of control | dose: 50.0 mg/kg/injection, schedule: Q01DX009 (ip), vehicle: other 106 % of control | dose: 100.0 mg/kg/injection, schedule: Q01DX009 (ip), vehicle: other 103 % of control | dose: 200.0 mg/kg/injection, schedule: Q01DX009 (ip), vehicle: other 113 % of control | dose: 400.0 mg/kg/injection, schedule: Q01DX009 (ip), vehicle: other 113 % of control

CCC(=O)/C=C/c1cc(OC)c(OC)c(OC)c1
inactive: dose: 100.0 mg/kg/injection, schedule: Q01DX001 (ip), vehicle: Klucel (hydroxypropylcellulose) (HPC) 107 % of control | dose: 200.0 mg/kg/injection, schedule: Q01DX001 (ip), vehicle: Klucel (hydroxypropylcellulose) (HPC) 107 % of control | dose: 400.0 mg/kg/injection, schedule: Q01DX001 (ip), vehicle: Klucel (hydroxypropylcellulose) (HPC) 100 % of control

O=Cc1c2cnc(c1O)CSCc1ccc(cc1)CSC2
inactive: dose: 50.0 mg/kg/injection, schedule: Q01DX005 (ip), vehicle: saline with Tween-80 104 % of control | dose: 100.0 mg/kg/injection, schedule: Q01DX005 (ip), vehicle: saline with Tween-80 110 % of control | dose: 200.0 mg/kg/injection, schedule: Q01DX005 (ip), vehicle: saline with Tween-80 113 % of control

O=C(O)C(O)(c1ccccc1)C1CCCC1 (centres undefined)
inactive: dose: 100.0 mg/kg/injection, schedule: Q01DX009 (ip), vehicle: saline with Tween-80 109 % of control | dose: 400.0 mg/kg/injection, schedule: Q01DX009 (ip), vehicle: saline with Tween-80 107 % of control

COc1ccc(NC(=O)Nc2ccc(NC(C)=O)cc2)c(OC)c1
inactive: dose: 15.0 mg/kg/injection, schedule: Q01DX005 (ip), vehicle: saline with Tween-80 93 % of control | dose: 30.0 mg/kg/injection, schedule: Q01DX005 (ip), vehicle: saline with Tween-80 92 % of control | [2] 86 % of control | [10] 88 % of control

O=S(=O)(O)c1c(O)c2ccccc2c2nc3ccccc3nc12
inactive: dose: 50.0 mg/kg/injection, schedule: Q01DX007 (ip), vehicle: saline 105 % of control | dose: 100.0 mg/kg/injection, schedule: Q01DX007 (ip), vehicle: saline 87 % of control

CC12CCC3C(CCC4N(CCCl)CCCC34C)C1CCC2O (centres undefined)
inactive: dose: 25.0 mg/kg/injection, schedule: Q01DX001 (ip), vehicle: saline 101 % of control | dose: 50.0 mg/kg/injection, schedule: Q01DX001 (ip), vehicle: saline 109 % of control | [1] 111 % of control

CC(=Nc1ccc2c(c1)C(=O)c1ccc(N=C(C)N(C)C)cc1C2=O)N(C)C
inactive: dose: 50.0 mg/kg/injection, schedule: Q01DX005 (ip), vehicle: Klucel (hydroxypropylcellulose) (HPC) 100 % of control | dose: 100.0 mg/kg/injection, schedule: Q01DX005 (ip), vehicle: Klucel (hydroxypropylcellulose) (HPC) 109 % of control | dose: 200.0 mg/kg/injection, schedule: Q01DX005 (ip), vehicle: Klucel (hydroxypropylcellulose) (HPC) 100 % of control

CC(=O)OCN(C)N=Nc1ccc(C(C)=O)cc1
inactive: [11] 106 % of control and 114 % of control and 118 % of control | [12] 100 % of control and 109 % of control and 124 % of control | dose: 480.0 mg/kg/injection, schedule: Q01DX005 (ip), vehicle: Klucel (hydroxypropylcellulose) (HPC) 108 % of control

Nc1ncnc2c1ncn2CC(O)CN(CCO)CCO (centres undefined) (tested in a mixture with another compound)
inactive: [7] 93 % of control | [8] 95 % of control | [9] 94 % of control

c1coc(-c2cc(-c3cc(-c4ccco4)on3)no2)c1
inactive: [11] 105 % of control | [12] 100 % of control | dose: 240.0 mg/kg/injection, schedule: Q01DX005 (ip), vehicle: Klucel (hydroxypropylcellulose) (HPC) 107 % of control

Cc1ccccc1C1C2CCCC(C2=O)C(c2ccccc2C)N1C (centres undefined)
inactive: dose: 100.0 mg/kg/injection, schedule: Q04DX003 (ip), vehicle: saline 100 % of control | dose: 200.0 mg/kg/injection, schedule: Q04DX003 (ip), vehicle: saline 103 % of control | dose: 400.0 mg/kg/injection, schedule: Q04DX003 (ip), vehicle: saline 89 % of control

O=C(COc1ccc(Cl)cc1Cl)Nc1ccc(I)cc1C(=O)O
inactive: [4] 94 % of control | [5] 92 % of control | [6] 91 % of control

COC1NC(=S)N(C2CCCCC2)C1(C)C (centres undefined)
inactive: dose: 50.0 mg/kg/injection, schedule: Q01DX009 (ip), vehicle: suspension in saline 97 % of control | dose: 100.0 mg/kg/injection, schedule: Q01DX009 (ip), vehicle: suspension in saline 97 % of control | dose: 200.0 mg/kg/injection, schedule: Q01DX009 (ip), vehicle: suspension in saline 100 % of control

CC1(C)OC2OC(COC(=O)c3ccccc3)C(N3OC4C=CC3CC4)C2O1 (centres undefined)
inactive: [13] 103 % of control | [14] 103 % of control | [15] 102 % of control

O=C(c1ccccc1)N1CC1
inactive: dose: 50.0 mg/kg/injection, schedule: Q01DX009 (ip), vehicle: saline + alcohol 94 % of control | dose: 100.0 mg/kg/injection, schedule: Q01DX009 (ip), vehicle: saline + alcohol 97 % of control | dose: 200.0 mg/kg/injection, schedule: Q01DX009 (ip), vehicle: saline + alcohol 100 % of control | dose: 400.0 mg/kg/injection, schedule: Q01DX009 (ip), vehicle: saline + alcohol 116 % of control

CCOC(=O)NCNC(=O)OCC
inactive: [4] 100 % of control | [5] 102 % of control | [13] 117 % of control | [14] 107 % of control | [15] 110 % of control

CN(CCC(=O)/C(=C\c1ccccc1)c1ccc(Cl)cc1)Cc1ccccc1
inactive: dose: 0.4 mg/kg/injection, schedule: Q01DX005 (ip), vehicle: saline with Tween-80 101 % of control | dose: 0.8 mg/kg/injection, schedule: Q01DX005 (ip), vehicle: saline with Tween-80 102 % of control | dose: 1.6 mg/kg/injection, schedule: Q01DX005 (ip), vehicle: saline with Tween-80 109 % of control | dose: 3.12 mg/kg/injection, schedule: Q01DX005 (ip), vehicle: saline with Tween-80 109 % of control | dose: 6.25 mg/kg/injection, schedule: Q01DX005 (ip), vehicle: saline with Tween-80 111 % of control

O=[N+]([O-])CCc1ccc(OC2OC(CO)C(O)C(O)C2O)cc1 (centres undefined)
inactive: dose: 100.0 mg/kg/injection, schedule: Q04DX002 (ip), vehicle: saline 104 % of control | dose: 200.0 mg/kg/injection, schedule: Q04DX002 (ip), vehicle: saline 102 % of control | dose: 400.0 mg/kg/injection, schedule: Q04DX002 (ip), vehicle: saline 97 % of control

C[N+](C)(C)CCC[N+]1(C)CC2CCCCC2C1 (centres undefined)
inactive: dose: 50.0 mg/kg/injection, schedule: Q01DX005 (ip), vehicle: saline 107 % of control | dose: 100.0 mg/kg/injection, schedule: Q01DX005 (ip), vehicle: saline 98 % of control | dose: 200.0 mg/kg/injection, schedule: Q01DX005 (ip), vehicle: saline 101 % of control
